From patent publication US20210355105A1, “REGULATOR OF NITROGEN-CONTAINING HETEROAROMATIC DERIVATIVES, PREPARATION METHOD THEREFOR AND USE THEREOF” (Jiangsu Hansoh Pharmaceutical Group Co., Ltd., priority 2018, published 2021)

Columns and labels:
[1] = tested on: human pancreatic cancer cell MiaPaca 2 xenograft; assay: Tumor inhibition test on MiaPaca 2 xenograft model; format: in vivo, Balb/c nude mice; conditions: intragastric
Procedure: Balb/c nude mice were used as test animals. In vivo pharmacodynamic test was carried out on human pancreatic cancer cell MiaPaca 2 xenograft (CDX) model to evaluate the anti-tumor effect of the test compounds.
MiaPaca 2 cells were taken from the cell bank and thawed. The cells were added to the DMEM medium (containing 10% FBS, 1% Glu and 1% P/S), and incubated in the CO2 incubator (the temperature of the incubator was 37° C., and the CO2 concentration was 5%). After the cells covered 80-90% of the bottom of the culture flask, the cells were passaged. After passage, the cells continued to be incubated in the CO2 incubator. The process was repeated until the number of cells met the inoculation requirement of the in vivo pharmacodynamic test. The cells in logarithmic growth phase were collected, and counted by the automatic cell counter. According to the counting results, the cells were resuspended with PBS and Matrigel (volume ratio: 1:1) to obtain a cell suspension (density: 8×10^7/ml), which was placed in an ice box for later use.
Female Balb/c nude mice (6-8 weeks old, body weight: about 18-22 grams) were used as test animals. The mice were maintained in an environment free of special pathogens and in a single ventilated cage (five mice per cage). All cages, bedding and water were disinfected before use. All animals had free access to standard certified commercial laboratory animal diets. The nude mice were marked with a disposable universal ear tag for rats and mice before the test. The skin of the inoculation site was disinfected with 75% medical alcohol before the inoculation. Each mouse was inoculated with 0.1 ml of MiaPaca 2 tumor cells (containing 8*10^6 cells) subcutaneously on the right back. When the average tumor volume reached 100 to 200 mm^3, administration was carried out. The test compounds were administered intragastrically daily. The tumor volume (mm^3) was measured with the vernier caliper twice a week. The tumor volume calculation formula: V=0.5*D*d*d, wherein D and d represent the long diameter and short diameter of the tumor, respectively. The anti-tumor efficacy was determined by dividing the average tumor increase volume of the compound-treated animals by the average tumor increase volume of the untreated animals. Tumor growth inhibition rate calculation formula: […]
All animals were euthanized after the experiment.

NCI-H358 cells = assay: Proliferation inhibition of NCI-H358 cells (CellTiter-Glo); format: cell-based; conditions: Homo sapiens, NCI-H358, 72 h; 3 days incubation
Procedure: Experimental method: 3000 cells (90 μL of cell suspension) were inoculated to each well of a 96-well cell culture plate (Corning, #3610). The culture plate was incubated in an incubator overnight (37° C., 5% CO2). On the next day, 10 μL of gradient dilutions of the test compound solution (the final DMSO content was 0.2%, V/V, the final concentration of the reaction system ranged from 10 μM to 4.5 nM) was added to each well of the culture plate. At the same time, full activity control (compound only with DMSO) and full inhibition control (no cells) were set up on the reaction plate. The culture plate was incubated in the incubator for 3 days (37° C., 5% CO2).
After completion of the incubation, 50 μL of CellTiter-Glo reagent was added to each well of the cell culture plate, which was left to stand at room temperature for 10 minutes. The chemiluminescence signal value was measured in the Synergy H1 full-function microplate reader (BioTek). […] The IC50 value of the test compounds was calculated by fitting the percentage inhibition rate and data of eight concentrations to a four-parameter nonlinear logic formula with GraphPad prism.
The IC50 value was calculated by fitting the data of different concentrations and corresponding percentage inhibition rates to a four-parameter nonlinear logic formula with GraphPad prism.

[2] = Pharmacokinetics assay in rats, oral administration; format: in vivo; conditions: rat; male SD rats, oral 5 mg/kg, plasma
Procedure: SD rats were used as test animals.
5 g of hydroxyethyl cellulose (HEC, CMC-Na, viscosity: 800-1200 Cps) was dissolved in 1000 mL of purified water, and 10 g of Tween80 was added. The solution was mixed well to form a clear solution.
The solution was shaked well and subjected to ultrasound for 15 minutes to obtain a colorless and clear solution with a concentration of 0.5 mg/mL.
After an overnight fast, male SD rats (3 rats per group) were administrated orally with the test compounds at an administration dose of 5 mg/kg and an administration volume of 10 mL/kg.
0.2 mL of blood was taken from jugular vein before administration and at 0.5 hour, 1.0 hour, 2.0 hours, 4.0 hours, 6.0 hours, 8.0 hours and 24.0 hours after administration. The blood samples were stored in EDTA-2K tubes, and centrifuged for 6 minutes at 6000 rpm, at 4° C. to separate the blood plasma. The plasma samples were stored at −80° C. The rats were fed four hours after administration.

[3] = Pharmacokinetics assay in mice, single intravenous injection; format: in vivo; conditions: male Balb/c mice
Procedure: (§1) Balb/c mice were used as test animals.
The solution was subjected to ultrasound to obtain a clear solution. The solution was filtered with a 0.22 μm water filter, and the filtrate was the formulation for intravenous administration (i.v.). The concentration was 0.2 mg/mL.
After an overnight fast, male Balb/c mice were administered intravenously with the test compounds at an administration dose of 1 mg/kg and an administration volume of 5 mL/kg.
Blood was taken before administration and at 0 minute, 5 minutes, 15 minutes, 0.5 hour, 1.0 hour, 2.0 hours, 4.0 hours, 8.0 hours and 24.0 hours after administration. The blood samples were stored in EDTA-2K tubes, and centrifuged for 6 minutes at 6000 rpm, at 4° C. to separate the blood plasma. The plasma samples were stored at −80° C. The mice were fed four hours after administration.

Tolerance assay in mice = format: in vivo, Balb/c mice; conditions: 10 mg/kg QD oral
Procedure: as §1
The solution was subjected to ultrasound for 10 minutes to obtain a colorless and clear solution with a concentration of 1 mg/mL.
After an overnight fast, Balb/c mice (3 male and 3 female) were administrated orally with the test compound at an administration dose of 10 mg/kg and an administration volume of 10 mL/kg.
The mice were weighed daily before and after administration, and abnormal responses were observed. The mice were fed four hours after administration.

[4] = mouse, iv, i.v. 1 mg/kg, plasma

IC50 (NCI-H358 cells) | AUC(0-inf) [2] | Cmax [2] | MRT [2] | Tmax [2] | half-life [2] | Compound | Tumor volume (Mean ± SD) Day 0 ([1]; 6 mg/kg QD × 3 w) | TGI Day 21 ([1]; 6 mg/kg QD × 3 w) | Tumor volume (Mean ± SD) Day 21 ([1]; 6 mg/kg QD × 3 w) | ΔT/ΔC Day 21 ([1]; 6 mg/kg QD × 3 w) | other results
11.9 nM | 1780 ng·h/mL | 189 ng/mL | 5.78 h | 1 h | 3.69 h | Cc1nc(N2CCC3(CC2)Cc2ncsc2[C@H]3N)c(CO)nc1Sc1ccnc(N)c1Cl [Example 171, (S)-(6-((2-amino-3-chloropyridin-4-yl)thio)-3-(6-amino-4,6-dihydrospiro[cyclopenta[d]thiazole-5,4′-piperidin]-1′-yl)-5-methylpyrazin-2-yl)methanol] | 167 ± 26 (168 ± 32) mm^3 | 95.43% | 198 ± 70 mm^3 | 4.57% | 
20.9 nM | 3840 ng·h/mL | 201 ng/mL | 15.2 h | 2 h | 10.5 h | Nc1nc(N2CCC3(CC2)Cc2ccccc2[C@H]3N)c(F)nc1Sc1ccnc(N)c1Cl [Example 179, (S)-1′-(6-amino-5-((2-amino-3-chloropyridin-4-yl)thio)-3-fluoropyrazin-2-yl)-1,3-dihydrospiro[indene-2,4′-piperidin]-1-amine] | 166 ± 28 (168 ± 32) mm^3 | 91.00% | 227 ± 37 mm^3 | 9.00% | F ([3]; printed in the i.v. 1 mg/kg table): 71%; AUC(0-inf) [3, 4]: 736 ng·h/mL; C0 [3, 4]: 264 ng/mL; MRT [3, 4]: 9.04 h; clearance [3, 4]: 22.6 mL/min/kg; half-life [3, 4]: 7.74 h; Vd ([3]; mouse, iv, i.v. 1 mg/kg, plasma, read-out: Vss): 12.3 L/kg; Body weight (Mean) Day 1 (Tolerance assay in mice; female mice): 22.07 g; Body weight (Mean) Day 16 (Tolerance assay in mice; female mice): 25.09 g; Body weight changes ΔW/W1 (Mean) Day 16 (Tolerance assay in mice; female mice): 13.80%; Body weight (Mean) Day 1 (Tolerance assay in mice; male mice): 23.01 g; Body weight (Mean) Day 16 (Tolerance assay in mice; male mice): 28.30 g; Body weight changes ΔW/W1 (Mean) Day 16 (Tolerance assay in mice; male mice): 23.25%
46.5 nM | 5890 ng·h/mL | 614 ng/mL | 5.84 h | 2 h | 3.55 h | Nc1nc(N2CCC3(CC2)Cc2ncsc2[C@H]3N)c(F)nc1Sc1ccnc(N)c1Cl [Example 181, (S)-1′-(6-amino-5-((2-amino-3-chloropyridin-4-yl)thio)-3-fluoropyrazin-2-yl)-4,6-dihydrospiro[cyclopenta[d]thiazole-5,4′-piperidin]-6-amine] |  |  |  |  | Tumor volume (Mean ± SD) Day 0 ([1]; 10 mg/kg QD × 3 w): 176 ± 36 (176 ± 39) mm^3; TGI Day 21 ([1]; 10 mg/kg QD × 3 w): 92.94%; Tumor volume (Mean ± SD) Day 21 ([1]; 10 mg/kg QD × 3 w): 240 ± 86 mm^3; ΔT/ΔC Day 21 ([1]; 10 mg/kg QD × 3 w): 7.06%

Compound | IC50 (NCI-H358 cells) | AUC(0-inf) [2] | Cmax [2] | MRT [2] | Tmax [2] | half-life [2] | Tumor volume (Mean ± SD) Day 0 ([1]; 6 mg/kg QD × 3 w) | TGI Day 21 ([1]; 6 mg/kg QD × 3 w) | Tumor volume (Mean ± SD) Day 21 ([1]; 6 mg/kg QD × 3 w) | ΔT/ΔC Day 21 ([1]; 6 mg/kg QD × 3 w) | other results
Nc1nccc(Sc2cnc(N3CCC4(CC=C(C5CC5)[C@H]4N)CC3)cn2)c1Cl [Example 144, (S)-8-(5-((2-amino-3-chloropyridin-4-yl)thio)pyrazin-2-yl)-2-cyclopropyl-8-azaspiro[4.5]dec-2-en-1-amine] | 9.19 nM | 3310 ng·h/mL | 247 ng/mL | 9.24 h | 1 h | 6.49 h |  |  |  |  | Tumor volume (Mean ± SD) Day 0 ([1]; 3 mg/kg QD × 3 w): 172 ± 26 (173 ± 28) mm^3; TGI Day 21 ([1]; 3 mg/kg QD × 3 w): 95.07%; Tumor volume (Mean ± SD) Day 21 ([1]; 3 mg/kg QD × 3 w): 216 ± 66 mm^3; ΔT/ΔC Day 21 ([1]; 3 mg/kg QD × 3 w): 4.93%
